Data published in US20150368209A1, “4-Pyrimidinylamino-benzenesulfonamide derivatives and their use for the inhibition of polo-like kinase 1 (PLK1) for the treatment of cancer and their use for the treatment of bacterial infections” (VICHEM CHEMIE KUTATÓ KFT., priority 2013, published 2015).
≈ marks a conversion by molar mass, not a printed value.

Assays:
human PLK1 kinase domain = target: T1, human PLK1 kinase domain (Homo sapiens, UniProt P53350); test: In vitro PLK1 assay (IMAP fluorescence polarization kinase assay); type: biochemical; details: for IC50: 30 nM PLK1 kinase domain, 16 μM ATP (=Kmapp), 90 min at room temperature; for inhibition at 10 µM: at 10 uM compound
T1 construct: Each reaction consisted of 30 nM enzyme PLK1 kinase domain
Experimental: The activity of the compounds described in the present invention was determined using a commercially available IMAP Screening Express Assay Kit (Molecular devices).
This method measures the change in the fluorescent polarization of a fluorescently-labeled peptide due to the effect of human PLK1 kinase domain on it. PLK1 kinase assays were performed in low protein binding 384-well plates (Corning 3676). Test compounds were diluted in 100% DMSO to 5 mM stock concentration, the further dilutions were made in H2O or 100% DMSO to desirable concentrations.
Each reaction consisted of 30 nM enzyme PLK1 kinase domain, 400 nM 5TAMRA-RGSFNDTLDFD-NH2 (Genecust Europe), 16 μM ATP (=Kmapp, Sigma-Aldrich) and kinase buffer: 20 mM HEPES pH 7.5 (Sigma-Aldrich), 1 mM DTT (Sigma-Aldrich), 10 mM MgCl2 (Sigma-Aldrich), 0.01% Triton X-100 (Sigma-Aldrich).
For each reaction, 4 or 6 μl containing 5TAMRA-RGSFNDTLDFD-NH2, ATP and kinase buffer were combined with 2 μl diluted compound in H2O or 0.04 μl compound in 100% DMSO. The kinase reaction was started by the addition of 2 μl diluted enzyme. The reaction was allowed to run for 90 minutes at room temperature. The reaction was stopped by adding 15 μl IMAP beads (1:1200 beads in progressive (40% buffer A, 60% buffer B) 1× buffer). After an additional 60 minutes, fluorescent polarization (Ex: 550-10 nm, Em: 590-10 nm, Dich: 561 nm) was measured using Analyst GT multimode reader (Molecular Devices).

M. tuberculosis H37Rv = test: Resazurin reduction microtiter assay (REMA), growth inhibition and MIC determination; type: cell-based; details: Mycobacterium tuberculosis, 168 h, 7 days at 37° C.; for inhibition at 20 µM: at 20 uM compound, read-out: H37Rv inh % at 20 uM; for MIC: two-fold serial dilution from 100 to 0.16 μM, read-out: H37Rv MIC90

T1 sequence (P53350 53-305 limits assumed): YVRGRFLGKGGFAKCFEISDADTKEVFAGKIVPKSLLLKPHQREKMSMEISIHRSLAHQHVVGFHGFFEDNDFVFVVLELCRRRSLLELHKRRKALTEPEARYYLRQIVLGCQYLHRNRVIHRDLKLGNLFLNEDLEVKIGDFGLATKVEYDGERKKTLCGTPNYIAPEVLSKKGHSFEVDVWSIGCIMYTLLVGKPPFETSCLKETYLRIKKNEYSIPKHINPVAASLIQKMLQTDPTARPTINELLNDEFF

CC(=O)Nc1ccc(-c2cc(Nc3ccc(S(=O)(=O)Nc4onc(C)c4C)cc3)ncn2)cc1 [Example 27, N-(4-{6-[4-(3,4-Dimethyl-isoxazol-5-ylsulfamoyl)-phenylamino]-pyrimidin-4-yl}-phenyl)-acetamide]
IC50 (human PLK1 kinase domain): 0.372 µM | inhibition at 10 µM (human PLK1 kinase domain): 68.7% | inhibition at 20 µM (M. tuberculosis H37Rv): -11.9%

COc1cccc(-c2cc(Nc3ccc(S(=O)(=O)Nc4onc(C)c4C)cc3)ncn2)c1 [Example 35, N-(3,4-Dimethyl-isoxazol-5-yl)-4-[6-(3-methoxy-phenyl)-pyrimidin-4-ylamino]-benzenesulfonamide]
IC50 (human PLK1 kinase domain): 2.49 µM | inhibition at 10 µM (human PLK1 kinase domain): 77.1% | inhibition at 20 µM (M. tuberculosis H37Rv): -8.1%

CCOc1ccccc1-c1cc(Nc2ccc(S(=O)(=O)Nc3onc(C)c3C)cc2)ncn1 [Example 8, N-(3,4-Dimethyl-isoxazol-5-yl)-4-[6-(2-ethoxy-phenyl)-pyrimidin-4-ylamino]-benzenesulfonamide]
IC50 (human PLK1 kinase domain): 1.25 µM | inhibition at 10 µM (human PLK1 kinase domain): 82.4% | inhibition at 20 µM (M. tuberculosis H37Rv): -48.4%

Cc1noc(NS(=O)(=O)c2ccc(Nc3cc(-c4ccc(F)cc4OC(C)C)ncn3)cc2)c1C [Example 17, N-(3,4-Dimethyl-isoxazol-5-yl)-4-[6-(4-fluoro-2-isopropoxy-phenyl)-pyrimidin-4-ylamino]-benzenesulfonamide]
IC50 (human PLK1 kinase domain): 0.179 µM | inhibition at 10 µM (human PLK1 kinase domain): 68.8% | inhibition at 20 µM (M. tuberculosis H37Rv): -1.4%

CCc1ccccc1-c1cc(Nc2ccc(S(=O)(=O)Nc3onc(C)c3C)cc2)ncn1 [Example 20, N-(3,4-Dimethyl-isoxazol-5-yl)-4-[6-(2-ethyl-phenyl)-pyrimidin-4-ylamino]-benzenesulfonamide]
IC50 (human PLK1 kinase domain): 0.96 µM | inhibition at 10 µM (human PLK1 kinase domain): 73% | inhibition at 20 µM (M. tuberculosis H37Rv): 103% | MIC (M. tuberculosis H37Rv): 4.84 µM (≈ 2.18 µg/mL)

Cc1noc(NS(=O)(=O)c2ccc(Nc3cc(-c4ccc(F)cc4F)ncn3)cc2)c1C [Example 21, 4-[6-(2,4-Difluoro-phenyl)-pyrimidin-4-ylamino]-N-(3,4-dimethyl-isoxazol-5-yl)-benzenesulfonamide]
IC50 (human PLK1 kinase domain): 0.368 µM | inhibition at 10 µM (human PLK1 kinase domain): 65.8% | inhibition at 20 µM (M. tuberculosis H37Rv): -3.7%

Cc1noc(NS(=O)(=O)c2ccc(Nc3cc(-c4ccccc4OC(C)C)ncn3)cc2)c1C [Example 13, N-(3,4-Dimethyl-isoxazol-5-yl)-4-[6-(2-isopropoxy-phenyl)-pyrimidin-4-ylamino]-benzenesulfonamide]
IC50 (human PLK1 kinase domain): 1.82 µM | inhibition at 10 µM (human PLK1 kinase domain): 88.6% | inhibition at 20 µM (M. tuberculosis H37Rv): -23%

Cc1noc(NS(=O)(=O)c2ccc(Nc3cc(-c4ccccc4F)ncn3)cc2)c1C [Example 40, N-(3,4-Dimethyl-isoxazol-5-yl)-4-[6-(2-fluoro-phenyl)-pyrimidin-4-ylamino]-benzenesulfonamide]
IC50 (human PLK1 kinase domain): 2.43 µM | inhibition at 10 µM (human PLK1 kinase domain): 88.6% | inhibition at 20 µM (M. tuberculosis H37Rv): -8.5%

COc1ccc(C(C)C)cc1-c1cc(Nc2ccc(S(=O)(=O)Nc3onc(C)c3C)cc2)ncn1 [Example 5, N-(3,4-Dimethyl-isoxazol-5-yl)-4-[6-(5-isopropyl-2-methoxy-phenyl)-pyrimidin-4-ylamino]-benzenesulfonamide]
inhibition at 10 µM (human PLK1 kinase domain): 43.2% | inhibition at 20 µM (M. tuberculosis H37Rv): 99.2% | MIC (M. tuberculosis H37Rv): 16 µM (≈ 7.9 µg/mL)

Cc1noc(NS(=O)(=O)c2ccc(Nc3cc(-c4cccc(C(F)(F)F)c4)ncn3)cc2)c1C [Example 42, N-(3,4-Dimethyl-isoxazol-5-yl)-4-[6-(3-trifluoromethyl-phenyl)-pyrimidin-4-ylamino]-benzenesulfonamide]
inhibition at 10 µM (human PLK1 kinase domain): 17% | inhibition at 20 µM (M. tuberculosis H37Rv): 24.2%

COc1ccc(COc2ccccc2-c2cc(Nc3ccc(S(=O)(=O)Nc4onc(C)c4C)cc3)ncn2)cc1 [Example 29, N-(3,4-Dimethyl-isoxazol-5-yl)-4-{6-[2-(4-methoxy-benzyloxy)-phenyl]-pyrimidin-4-ylamino}-benzenesulfonamide]
inhibition at 10 µM (human PLK1 kinase domain): 36% | inhibition at 20 µM (M. tuberculosis H37Rv): -14.2%

Cc1noc(NS(=O)(=O)c2ccc(Nc3cc(-c4ccc5c(c4)OCO5)ncn3)cc2)c1C [Example 11, 4-(6-Benzo[1,3]dioxol-5-yl-pyrimidin-4-ylamino)-N-(3,4-dimethyl-isoxazol-5-yl)-benzenesulfonamide]
IC50 (human PLK1 kinase domain): 0.888 µM | inhibition at 10 µM (human PLK1 kinase domain): 74.4% | inhibition at 20 µM (M. tuberculosis H37Rv): -21.5%

COc1ccccc1-c1cc(Nc2ccc(S(=O)(=O)NC(=O)C(C)C(C)=O)cc2)ncn1 (centres unmarked) [Example 41, 4-[6-(2-Methoxy-phenyl)-pyrimidin-4-ylamino]-N-(2-methyl-3-oxo-butyryl)-benzenesulfonamide]
inhibition at 10 µM (human PLK1 kinase domain): 59% | inhibition at 20 µM (M. tuberculosis H37Rv): -4.8%

CCCOc1ccccc1-c1cc(Nc2ccc(S(=O)(=O)Nc3onc(C)c3C)cc2)ncn1 [Example 10, N-(3,4-Dimethyl-isoxazol-5-yl)-4-[6-(2-propoxy-phenyl)-pyrimidin-4-ylamino]-benzenesulfonamide]
IC50 (human PLK1 kinase domain): 0.925 µM | inhibition at 10 µM (human PLK1 kinase domain): 104% | inhibition at 20 µM (M. tuberculosis H37Rv): -21.2%

COc1ccc(OC)c(-c2cc(Nc3ccc(S(=O)(=O)Nc4onc(C)c4C)cc3)ncn2)c1 [Example 7, 4-[6-(2,5-Dimethoxy-phenyl)-pyrimidin-4-ylamino]-N-(3,4-dimethyl-isoxazol-5-yl)-benzenesulfonamide]
IC50 (human PLK1 kinase domain): 0.189 µM | inhibition at 10 µM (human PLK1 kinase domain): 59.6% | inhibition at 20 µM (M. tuberculosis H37Rv): 58.2%

COc1ccc(F)cc1-c1cc(Nc2ccc(S(=O)(=O)Nc3onc(C)c3C)cc2)ncn1 [Example 38, N-(3,4-Dimethyl-isoxazol-5-yl)-4-[6-(5-fluoro-2-methoxy-phenyl)-pyrimidin-4-ylamino]-benzenesulfonamide]
IC50 (human PLK1 kinase domain): 3.19 µM | inhibition at 10 µM (human PLK1 kinase domain): 80.8% | inhibition at 20 µM (M. tuberculosis H37Rv): 96.4% | MIC (M. tuberculosis H37Rv): 19.6 µM (≈ 9.2 µg/mL)

Cc1noc(NS(=O)(=O)c2ccc(Nc3cc(-c4c(F)cccc4OC(C)C)ncn3)cc2)c1C [Example 23, N-(3,4-Dimethyl-isoxazol-5-yl)-4-[6-(2-fluoro-6-isopropoxy-phenyl)-pyrimidin-4-ylamino]-benzenesulfonamide]
IC50 (human PLK1 kinase domain): 1.78 µM | inhibition at 10 µM (human PLK1 kinase domain): 70.4% | inhibition at 20 µM (M. tuberculosis H37Rv): 102% | MIC (M. tuberculosis H37Rv): 10.2 µM (≈ 5.1 µg/mL)

COc1ccccc1-c1cc(Nc2ccc(S(=O)(=O)Nc3cc(C)on3)cc2)ncn1 [Example 33, 4-[6-(2-Methoxy-phenyl)-pyrimidin-4-ylamino]-N-(5-methyl-isoxazol-3-yl)-benzenesulfonamide]
inhibition at 10 µM (human PLK1 kinase domain): 57.8% | inhibition at 20 µM (M. tuberculosis H37Rv): -30.6%

Cc1noc(NS(=O)(=O)c2ccc(Nc3cc(-c4ccc(F)cc4Cl)ncn3)cc2)c1C [Example 19, 4-[6-(2-Chloro-4-fluoro-phenyl)-pyrimidin-4-ylamino]-N-(3,4-dimethyl-isoxazol-5-yl)-benzenesulfonamide]
IC50 (human PLK1 kinase domain): 0.047 µM | inhibition at 10 µM (human PLK1 kinase domain): 60.8% | inhibition at 20 µM (M. tuberculosis H37Rv): 100% | MIC (M. tuberculosis H37Rv): 19.4 µM (≈ 9.22 µg/mL)

Cc1noc(NS(=O)(=O)c2ccc(Nc3cc(-c4ccccc4C(N)=O)ncn3)cc2)c1C [Example 26, 2-{6-[4-(3,4-Dimethyl-isoxazol-5-ylsulfamoyl)-phenylamino]-pyrimidin-4-yl}-benzamide]
inhibition at 10 µM (human PLK1 kinase domain): 0% | inhibition at 20 µM (M. tuberculosis H37Rv): -34.2%

Cc1noc(NS(=O)(=O)c2ccc(Nc3cc(-c4cccc5ccccc45)ncn3)cc2)c1C [Example 43, N-(3,4-Dimethyl-isoxazol-5-yl)-4-(6-naphthalen-1-yl-pyrimidin-4-ylamino)-benzenesulfonamide]
IC50 (human PLK1 kinase domain): 13.8 µM | inhibition at 10 µM (human PLK1 kinase domain): 58.8% | inhibition at 20 µM (M. tuberculosis H37Rv): -9.2%
